Laboratory results reported in patent US10168338B2, “Methods of identifying modulators of sestrin-gator-2 interaction for modulating mTORC1 activity” (Whitehead Institute for Biomedical Research, priority 2014, dated 2019).

Tests used:
mTORC1 = mTORC1 signaling in HEK-293T cells (S6K1 phosphorylation immunoblot); assay type: cell-based, human; settings: Homo sapiens; HEK-293T starved of leucine 50 minutes, restimulated 10 minutes; read-out: half-maximal effect on mTORC1 activity in cells
Description: Immunoprecipitated proteins were denatured by the addition of 50 μl of sample buffer and boiling for 5 minutes as described (Kim et al., 2002), resolved by 8%-16% SDS-PAGE, and analyzed by immunoblotting using the appropriate antibody (antibodies to phospho-T389 S6K1, S6K1, Sestrin2, mTOR, Mios and FLAG all obtained from Cell Signaling Technology; antibodies to WDR24 and WDR59 were generously provided by Jianxin Xie at Cell Signaling Technology).
(§1) In order to determine the effect of amino acids on the GATOR2-Sestrin interaction, transfected cells were incubated in amino acid free RPMI for 50 minutes and then stimulated with amino acids for 10 minutes. For glucose starvation, cells were incubated in RPMI media lacking glucose but containing amino acids and dialyzed serum for 50 minutes, followed by a 10 minute restimulation with 5 mM D-Glucose. For insulin deprivation, cells were incubated in RPMI without serum for 50 minutes and restimulated with 1 μg/ml insulin for 10 minutes. Finally, when Torin1 or Rapamycin was used, cells were incubated with 250 nM of each throughout the starvation and restimulation period.

Sestrin2-GATOR2 complex = target: T1, Sestrin2-GATOR2 complex (Homo sapiens, UniProt P58004); assay: Amino acids added to ice-cold detergent lysates of amino acid-starved HEK-293T cells, FLAG immunoprecipitation; assay type: binding; settings: ice-cold detergent lysates of HEK-293T cells starved for all amino acids
T1 construct: To isolate the FLAG-WDR24/endogenous-Sestrin2 complex; endogenous in cells; host or cells: HEK-293T cells stably expressing FLAG-WDR24; Sestrin2 and the other GATOR2 subunits are endogenous
T1 sequence (P58004 1-480): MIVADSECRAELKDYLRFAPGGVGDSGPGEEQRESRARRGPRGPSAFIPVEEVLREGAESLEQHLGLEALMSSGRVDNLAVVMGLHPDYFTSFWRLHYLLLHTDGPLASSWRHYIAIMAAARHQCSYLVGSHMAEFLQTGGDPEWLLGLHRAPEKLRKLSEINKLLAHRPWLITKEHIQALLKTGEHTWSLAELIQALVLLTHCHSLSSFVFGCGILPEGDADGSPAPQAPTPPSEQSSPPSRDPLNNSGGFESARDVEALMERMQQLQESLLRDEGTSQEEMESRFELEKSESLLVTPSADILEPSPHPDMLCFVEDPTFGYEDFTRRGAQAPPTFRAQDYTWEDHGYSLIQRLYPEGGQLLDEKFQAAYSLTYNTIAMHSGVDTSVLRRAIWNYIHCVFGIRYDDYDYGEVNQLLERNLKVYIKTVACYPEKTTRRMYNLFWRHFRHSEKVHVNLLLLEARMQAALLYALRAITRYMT
Description: HEK-293T cells stably expressing the FLAG-tagged GATOR2 component WDR24 were starved of all amino acids for 50 minutes. Individual amino acids were added pre-lysis to the cell culture media or post-lysis to cell lysates prior to FLAG immunoprecipitation.
We next tested if leucine acts directly on the Sestrin2-GATOR2 complex.

Sestrin1 = assay: [3H]-leucine binding to FLAG-Sestrin1 immunoprecipitated from HEK-293T cells; design: species or system human; settings: FLAG-tagged protein from HEK-293T
Description: Four million HEK-293T cells were plated in a 15 cm plate four days prior to the experiment. Each plate yielded the protein for one sample. Forty-eight hours after plating, the cells were transfected via the polyethylenimine method (O. Boussif et al., PNAS (USA), 92:7297-7301 (1995)) with the pRK5-based cDNA expression plasmids indicated in the figures in the following amounts: 5 μgFLAG-Sestrin2; 12 μg of the negative control Rap2A; 5 μg WDR24; 2 μg WDR24 with 4 μg each of HA-Seh1L, HA-Sec13, HA-Mios, and HA-WDR59; 12 […] (CG11299-PD); 12 μgFLAG-Sestrin1.1; 12 μg FLAG-Sestrin1.2; 12 μg FLAG-Sestrin3; 12 μg FLAG-Sestrin2 mutants (L261A, E451A, S190A) and up to 20 μg total DNA with empty-PRK5. Forty-eight hours after transfection cells were lysed as described in Example 1. […]
For the binding assays, two tubes at a time were washed as previously indicated for immunoprecipitations. […] With a cut tip, each sample was mixed well and three 10 μl aliquots were separately quantified using a TriCarb® scintillation counter (PerkinElmer). This process was repeated in pairs for each sample, to ensure similar incubation and wash times for all samples analyzed across different experiments.

[1] = target: T2, GATOR2-Sestrin2 interaction (Homo sapiens, UniProt P58004); assay: Sestrin2-GATOR2 interaction in HEK-293T cells after starvation/restimulation (co-immunoprecipitation); assay type: cell-based
T2 construct: To isolate the FLAG-WDR24/endogenous-Sestrin2 complex; endogenous in cells; host or cells: HEK-293T cells stably expressing FLAG-WDR24; Sestrin2 and the other GATOR2 subunits are endogenous
T2 sequence (P58004 1-480): T1 sequence (P58004 1-480)
Description: as §1
HEK-293T cells stably expressing FLAG-WDR24 or the control protein FLAG-metap2 (as described in Example 1) were starved for leucine, arginine, or all amino acids for 50 minutes. In some samples, cells were re-stimulated with leucine, arginine, or all amino acids for 10 minutes and then FLAG immunoprecipitates prepared from cell lysates. Immunoprecipitates and lysates were analyzed by immunoblotting for indicated proteins. Removal of either leucine or arginine from the cell media inhibited mTORC1 signaling, as indicated by S6K1 phosphorylation, to similar extents. Strikingly, however, only leucine starvation caused Sestrin2 to bind to GATOR2 inducing the interaction as effectively as complete amino acid starvation (FIG. 9A). […] Leucine starvation and stimulation also strongly regulated the interaction of endogenous Sestrin1, but not endogenous Sestrin3, with GATOR2 (Figure not shown).

EC50 (mTORC1): 20 to 40 µM
effect on Sestrin2-GATOR2 interaction when added to cell lysates (Sestrin2-GATOR2 complex): abrogated the interaction
EC50 ([1]; HEK-293T starved of leucine 50 minutes, restimulated 10 minutes, read-out: half-maximal effect on the Sestrin2-GATOR2 interaction in cells): 20 to 40 µM
effect of re-addition on Sestrin2 binding to GATOR2 in cells ([1]; starved 50 minutes, re-stimulated 10 minutes): rapidly reversed the binding
Compound: CC(C)C[C@H](N)C(=O)O [leucine]
binding of leucine to Sestrin1 (Sestrin1): to a similar extent as Sestrin2
